Experimental data published in patent US10471046B2, “Method for treating, preventing, or reducing the risk of skin infection” (Melinta Subsidiary Corp., priority 2014, dated 2019).
Values after ≈ are worked out from the molar mass of the structure shown.

System: S. aureus
Test: Minimum inhibitory concentrations (MICs) for S. aureus of exemplary compounds (Table 2)
Format: cell-based
Settings: Staphylococcus aureus, minimum inhibitory concentrations for S. aureus; read-out: MICs
Method in brief: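 MICs (μg/mL) against S. aureus come from microtiter-tray dilution susceptibility testing per NCCLS M7-A5, comparing growth with and without compound.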

SMILES | MIC [µg/mL]
CC(=O)NC[C@H]1CN(c2ccc(-c3ccc(CN4CC(CF)OC4=O)cc3)c(F)c2)C(=O)O1 (mixture of isomers) [Compound 1095, N-{3-[2-Fluoro-4′-(5-fluoromethyl-2-oxo-oxazolidin-3-(R/S)ylmethyl)-biphenyl-4-yl]-2-oxo-oxazolidin-5-(S)-ylmethyl}-acetamide] | 0.5 (≈ 1.09 µM)
COc1cc(CN(Cc2ccc(-c3ccc(N4C[C@H](CNC(C)=O)OC4=O)cc3F)cc2)Cc2ccc(O)c(OC)c2)ccc1O [Compound 4037, N-[3-(4′-{[Bis-(4-hydroxy-3-methoxy-benzyl)-amino]-methyl}-2-fluoro-biphenyl-4-yl)-2-oxo-oxazolidin-5-(S)-ylmethyl]-acetamide] | 2 (≈ 3.18 µM)
CC(=O)NC[C@H]1CN(c2ccc(-c3ccc([C@H](O)CN(CCCF)Cc4ccccc4)cc3)c(F)c2)C(=O)O1 [Compound 4247, N-[3-(4′-{2-[Benzyl-(3-fluoro-propyl)-amino]-1-(S)-hydroxy-ethyl}-2-fluoro-biphenyl-4-yl)-2-oxo-oxazolidin-5-(S)-ylmethyl]-acetamide] | 8 (≈ 14.9 µM)
CC(=O)NC[C@H]1CN(c2ccc(-c3ccc(CNCCCc4cn[nH]c4C)cc3)c(F)c2)C(=O)O1 [Compound 4148, N-[3-(2-Fluoro-4′-{[3-(5-methyl-1H-pyrazol-4-yl)-propylamino]-methyl}-biphenyl-4-yl)-2-oxo-oxazolidin-5-(S)-ylmethyl]-acetamide] | 2 (≈ 4.17 µM)
CC(=O)NC[C@H]1CN(c2ccc(-c3ccc([C@H](O)CN4CCCC(F)(F)C4)cc3)c(F)c2)C(=O)O1 [Compound 1075, N-(3-{4′-[2-(3,3-Difluoro-piperidin-1-yl)-1-(S)-hydroxy-ethyl]-2-fluoro-biphenyl-4-yl}-2-oxo-oxazolidin-5-(S)-ylmethyl)-acetamide] | 2 (≈ 4.07 µM)

Continued, values first:

MIC [µg/mL] | SMILES
8 (≈ 15.4 µM) | CC(=O)NC[C@H]1CN(c2ccc(-c3ccc(CNC(=O)/C=C/c4ccc(=O)n(C)c4)cc3)c(F)c2)C(=O)O1 [Compound 4193, N-{4′-[5-(S)-(Acetylamino-methyl)-2-oxo-oxazolidin-3-yl]-2′-fluoro-biphenyl-4-ylmethyl}-3-(1-methyl-6-oxo-1,6-dihydro-pyridin-3-yl)-acrylamide]
1 (≈ 2.28 µM) | CC(=O)NC[C@H]1CN(c2ccc(-c3ccc([C@H](O)Cn4ccnc4)cc3)c(F)c2)C(=O)O1 [Compound 1046, N-{3-[2-Fluoro-4′-(1-(S)-hydroxy-2-imidazol-1-yl-ethyl)-biphenyl-4-yl]-2-oxo-oxazolidin-5-(S)-ylmethyl}-acetamide]
32 (≈ 70.9 µM) | CC(=O)NC[C@H]1CN(c2ccc(-c3ccc(CNCc4[nH]cnc4C)cc3)c(F)c2)C(=O)O1 [Compound 4082, N-[3-(2-Fluoro-4′-{[(5-methyl-3H-imidazol-4-ylmethyl)-amino]-methyl}-biphenyl-4-yl)-2-oxo-oxazolidin-5-(S)-ylmethyl]-acetamide]
1 (≈ 2.06 µM) | CC(=O)NC[C@H]1CN(c2ccc(-c3ccc(CNCCSc4cnn[nH]4)cc3)c(F)c2)C(=O)O1 [Compound 5001, N-[3-(2-Fluoro-4′-{[2-(3H-[1,2,3]triazol-4-ylsulfanyl)-ethylamino]-methyl}-biphenyl-4-yl)-2-oxo-oxazolidin-5-(S)-ylmethyl]-acetamide]
4 (≈ 8.38 µM) | CC(=O)NC[C@H]1CN(c2ccc(-c3ccc([C@H](O)CNCc4ccccc4)cc3)c(F)c2)C(=O)O1 [Compound 4246, N-{3-[4′-(2-Benzylamino-1-(S)-hydroxy-ethyl)-2-fluoro-biphenyl-4-yl]-2-oxo-oxazolidin-5-(S)-ylmethyl}-acetamide]
8 (≈ 15.8 µM) | CC(=O)NC[C@H]1CN(c2ccc(-c3ccc(CNC(=O)[C@@H](N)Cc4ccccn4)cc3)c(F)c2)C(=O)O1 [Compound 4302, N-{4′-[5-(S)-(Acetylamino-methyl)-2-oxo-oxazolidin-3-yl]-2′-fluoro-biphenyl-4-ylmethyl}-2-(S)-amino-3-pyridin-2-yl-propionamide]
